The target in the first assay is MTH1 (Homo sapiens, UniProt P36639). The assay can be described thus: MTH1 enzymatic assay and IC50 value determination (malachite green). Format: biochemical. Particulars: MTH1 4.8 nM, dGTP 100 μM, 15 minutes at 22° C.; group: between 2 μM and 10 μM. The method, then: MTH1 Enzymatic Assay and IC50 Value Determination
MTH1 catalyzes the hydrolysis of dGTP to dGMP and PPi. By coupling the reaction to pyrophosphatase added in excess PPi is converted to Pi that can be detected by using the malachite green assay reagent. Briefly, for IC50 value determination the compound to be analyzed is diluted in assay buffer in a 1:3 dilution series generating 12 different compound concentrations giving a final DMSO concentration of 1% in the assay well. MTH1 diluted in assay buffer (100 mM Tris-acetate, 40 mM NaCl, 10 mM magnesium acetate, 1 mM DTT and 0.005% Tween 20) fortified with E. coli pyrophosphatase (0.8 U/ml) is added to a final concentration of 4.8 nM. dGTP diluted in assay buffer is added to a final concentration of 100 μM. The reaction mixture is incubated with shaking for 15 minutes at 22° C. To 100 μl reaction mixture is 25 μl Malachite green assay regent (0.095% Malachite green in 17% H2SO4, 1.5% Ammonium molybdate, 0.17% Tween 20) added followed by incubation with shaking for 15 minutes at 22° C.
The absorbance of the assay plate is read at 630 nm using an EnVision Multilabel plate reader. The IC50 value is determined by fitting a dose response curve to the data points using nonlinear regression analysis and the equation Y=Bottom+(Top−Bottom)/(1+10^((Log IC50−X)*HillSlope)), where Y is the read absorbance at 630 nm and X is log [compound].
For orientation: IC50 means the midpoint of a concentration-inhibition curve. The low end stands for higher potency, the high end for lower potency. In the case of `Cc1cccc(-c2cc(NCCN3CCCCC3)nc(N)n2)c1C` [Example 112, 6-(2,3-dimethylphenyl)-4-N-[2-(piperidin-1-yl)ethyl]pyrimidine-2,4-diamine], the IC50 fell in the range of 2000 to 10000 nM.
For `Cc1ccc(S(=O)(=O)n2cc(-c3cc(NC(C)(C)C)nc(N)n3)c3ccccc32)cc1` [Example 161, 4-N-tert-butyl-6-[1-(4-methylbenzenesulfonyl)-1H-indol-3-yl]pyrimidine-2,4-diamine], the IC50 lay within 2000 to 10000 nM.
Regarding `Cc1cccc(-c2cc(N[C@H](C)C3CC3)nc(N)n2)c1C` [Example 166, 4-N-[(1R)-1-cyclopropylethyl]-6-(2,3-dimethylphenyl)pyrimidine-2,4-diamine], the IC50 is 2000 to 10000 nM.
Compound `Cc1ccc(S(=O)(=O)n2cc(-c3cc(N[C@H](C)C4CC4)nc(N)n3)c3ccccc32)cc1` [Example 167, 4-N-[(1R)-1-cyclopropylethyl]-6-[1-(4-methylbenzenesulfonyl)-1H-indol-3-yl]pyrimidine-2,4-diamine] registered a half-maximal inhibitory concentration (IC50) of 2000 to 10000 nM.
On the same count and under the same terms, the figure for `C[C@@H](Nc1cc(-c2cccc(Cl)c2Cl)nc(N)n1)C1CC1` [Example 179, 4-N-[(1R)-1-cyclopropylethyl]-6-(2,3-dichlorophenyl)pyrimidine-2,4-diamine] is 2000 to 10000 nM; for `CC(C)(C)CNc1cc(-c2cccc(Cl)c2Cl)nc(N)n1` [Example 180, 6-(2,3-dichlorophenyl)-4-N-(2,2-dimethylpropyl)pyrimidine-2,4-diamine] it is 2000 to 10000 nM; for `Cc1cccc(-c2cc(NCC(C)(C)C)nc(N)n2)c1C` [Example 181, 6-(2,3-dimethylphenyl)-4-N-(2,2-dimethylpropyl)pyrimidine-2,4-diamine] it is 2000 to 10000 nM.
The same measure, in the same setting: as for `Cc1ccc(S(=O)(=O)n2cc(-c3cc(NCC(C)(C)C)nc(N)n3)c3ccccc32)cc1` [Example 182, 4-N-(2,2-dimethylpropyl)-6-[1-(4-methylbenzenesulfonyl)-1H-indol-3-yl]pyrimidine-2,4-diamine], the figure is 2000 to 10000 nM.

Still in this assay, the particulars now being: MTH1 4.8 nM, dGTP 100 μM, 15 minutes at 22° C.; group: less than 200 nM.
`CNc1cc(-c2ccc(C(=O)OC)cc2)nc(N)n1` [Example 103, methyl 4-[2-amino-6-(methylamino)pyrimidin-4-yl]benzoate] came in with a concentration for half-maximal inhibition (IC50) of less than 200 nM.
`CNc1cc(-c2ccc(O)c(Cl)c2Cl)nc(N)n1` [Example 105, 4-[2-amino-6-(methylamino)pyrimidin-4-yl]-2,3-dichlorophenol] gave an IC50 of less than 200 nM.
On the same count and under the same terms, as for `CNc1cc(-c2ccc(C=O)cc2)nc(N)n1` [Example 108, 4-[2-amino-6-(methylamino)pyrimidin-4-yl]benzaldehyde], the figure is less than 200 nM; as for `CNC(=O)c1ccc(-c2cc(NC)nc(N)n2)cc1` [Example 110, 4-[2-amino-6-(methylamino)pyrimidin-4-yl]-N-methylbenzamide], less than 200 nM; as for `C=Cc1ccc(-c2cc(NC)nc(N)n2)cc1` [Example 111, 6-(4-ethenylphenyl)-4-N-methylpyrimidine-2,4-diamine], less than 200 nM.
Still for that read-out and setting: as for `CNc1cc(-c2cccc(C(=O)Nc3ccc(C)cc3)c2)nc(N)n1` [Example 115, 3-[2-amino-6-(methylamino)pyrimidin-4-yl]-N-(4-methylphenyl)benzamide], the figure is less than 200 nM.
Still for that read-out and setting: as for `CNc1cc(-c2ccnc(OC)c2Cl)nc(N)n1` [Example 120, 6-(3-chloro-2-methoxypyridin-4-yl)-4-N-methylpyrimidine-2,4-diamine], the figure is less than 200 nM; as for `COc1ccccc1CCNc1cc(-c2cccc(C)c2C)nc(N)n1` [Example 126, 6-(2,3-dimethylphenyl)-4-N-[2-(2-methoxyphenyl)ethyl]pyrimidine-2,4-diamine], less than 200 nM.
As to `Cc1ccc(CCNc2cc(-c3cccc(C)c3C)nc(N)n2)cc1` [Example 127, 6-(2,3-dimethylphenyl)-4-N-[2-(4-methylphenyl)ethyl]pyrimidine-2,4-diamine], the half-maximal inhibitory concentration (IC50) was less than 200 nM.
The same measure, in the same setting: the figure for `Cc1cccc(-c2cc(NCCc3ccccn3)nc(N)n2)c1C` [Example 129, 6-(2,3-dimethylphenyl)-4-N-[2-(pyridin-2-yl)ethyl]pyrimidine-2,4-diamine] is less than 200 nM; for `Cc1cccc(-c2cc(NCCCc3ccccc3)nc(N)n2)c1C` [Example 131, 6-(2,3-dimethylphenyl)-4-N-(3-phenylpropyl)pyrimidine-2,4-diamine] it is less than 200 nM; for `Cc1cccc(-c2cc(NCCOc3ccccc3)nc(N)n2)c1C` [Example 132, 6-(2,3-dimethylphenyl)-4-N-(2-phenoxyethyl)pyrimidine-2,4-diamine] it is less than 200 nM.
Take `CCCCCNc1cc(-c2cccc(C)c2C)nc(N)n1` [Example 135, 6-(2,3-dimethylphenyl)-4-N-pentylpyrimidine-2,4-diamine]: the half-inhibitory concentration (IC50) is less than 200 nM.
Same read-out and setting: as for `CNc1cc(-c2ccc(O)nc2)nc(N)n1` [Example 141, 5-[2-amino-6-(methylamino)pyrimidin-4-yl]pyridin-2-ol], the figure is less than 200 nM; as for `CNc1cc(-c2ccc(CO)cc2)nc(N)n1` [Example 142, {4-[2-amino-6-(methylamino)pyrimidin-4-yl]phenyl}methanol], less than 200 nM.
The same measure, in the same setting: as for `CNc1cc(-c2cn(S(=O)(=O)c3ccc(Cl)cc3)c3ccccc23)nc(N)n1` [Example 144, 6-[1-(4-chlorobenzenesulfonyl)-1H-indol-3-yl]-4-N-methylpyrimidine-2,4-diamine], the figure is less than 200 nM.
As to `CNc1cc(-c2cc3cn[nH]c3cc2C)nc(N)n1` [Example 146, 4-N-methyl-6-(6-methyl-1H-indazol-5-yl)pyrimidine-2,4-diamine], the IC50 was less than 200 nM.
As to `CNc1cc(-c2ccc3[nH]ccc3c2)nc(N)n1` [Example 148, 6-(1H-indol-5-yl)-4-N-methylpyrimidine-2,4-diamine], the IC50 was less than 200 nM.
The same measure, in the same setting: the figure for `CNc1cc(-c2ccncc2Cl)nc(N)n1` [Example 149, 6-(3-chloropyridin-4-yl)-4-N-methylpyrimidine-2,4-diamine] is less than 200 nM.
Same read-out and setting: the figure for `Cc1cccc(-c2cc(NC3CCC3)nc(N)n2)c1C` [Example 151, 4-N-cyclobutyl-6-(2,3-dimethylphenyl)pyrimidine-2,4-diamine] is less than 200 nM; for `CCNc1cc(-c2cn(S(=O)(=O)c3ccc(C)cc3)c3ccccc23)nc(N)n1` [Example 159, 4-N-ethyl-6-[1-(4-methylbenzenesulfonyl)-1H-indol-3-yl]pyrimidine-2,4-diamine] it is less than 200 nM; for `Cc1cccc(-c2cc(NCC3CC3)nc(N)n2)c1C` [Example 164, 4-N-(cyclopropylmethyl)-6-(2,3-dimethylphenyl)pyrimidine-2,4-diamine] it is less than 200 nM.
On to `Cc1ccc(S(=O)(=O)n2cc(-c3cc(NCC4CC4)nc(N)n3)c3ccccc32)cc1` [Example 165, 4-N-(cyclopropylmethyl)-6-[1-(4-methylbenzenesulfonyl)-1H-indol-3-yl]pyrimidine-2,4-diamine], for which the half-inhibitory concentration (IC50) is less than 200 nM.
The same measure, in the same setting: as for `Cc1cccc(-c2cc(N[C@@H](C)C3CC3)nc(N)n2)c1C` [Example 168, 4-N-[(1S)-1-cyclopropylethyl]-6-(2,3-dimethylphenyl)pyrimidine-2,4-diamine], the figure is less than 200 nM; as for `CNc1cc(-c2cc(C)ccc2Cl)nc(N)n1` [Example 171, 6-(2-chloro-5-methylphenyl)-4-N-methylpyrimidine-2,4-diamine], less than 200 nM.
Same read-out and setting: the figure for `CNc1cc(-c2ccc(C(C)(C)O)cc2)nc(N)n1` [Example 173, 2-{4-[2-amino-6-(methylamino)pyrimidin-4-yl]phenyl}propan-2-ol] is less than 200 nM; for `CNc1cc(-c2cccc3[nH]ccc23)nc(N)n1` [Example 174, 6-(1H-indol-4-yl)-4-N-methylpyrimidine-2,4-diamine] it is less than 200 nM; for `Nc1nc(NC2CCCCC2)cc(-c2cccc(Cl)c2Cl)n1` [Example 175, 4-N-cyclohexyl-6-(2,3-dichlorophenyl)pyrimidine-2,4-diamine] it is less than 200 nM.
Same read-out and setting: the figure for `CNc1cc(-c2cc(Cl)c(OC)cc2Cl)nc(N)n1` [Example 192, 6-(2,5-dichloro-4-methoxyphenyl)-4-N-methylpyrimidine-2,4-diamine] is less than 200 nM; for `CNc1cc(-c2cc(C(C)(C)C)ccc2OC)nc(N)n1` [Example 197, 6-(5-tert-butyl-2-methoxyphenyl)-4-N-methylpyrimidine-2,4-diamine] it is less than 200 nM.
Compound `CNc1cc(-c2cc(C(C)C)ccc2OC)nc(N)n1` [Example 198, 6-[2-methoxy-5-(propan-2-yl)phenyl]-4-N-methylpyrimidine-2,4-diamine] had an IC50 of less than 200 nM.
The same measure, in the same setting: as for `CNc1cc(-c2cc(Cl)ccc2OC)nc(N)n1` [Example 201, 6-(5-chloro-2-methoxyphenyl)-4-N-methylpyrimidine-2,4-diamine], the figure is less than 200 nM.
Still for that read-out and setting: as for `CNc1cc(-c2cc(F)ccc2C)nc(N)n1` [Example 202, 6-(5-fluoro-2-methylphenyl)-4-N-methylpyrimidine-2,4-diamine], the figure is less than 200 nM; as for `CNc1cc(-c2cc(OC)ccc2OC)nc(N)n1` [Example 203, 6-(2,5-dimethoxyphenyl)-4-N-methylpyrimidine-2,4-diamine], less than 200 nM.

The values are drawn from patent publication US10174029B2, “Pyrimidine-2,4-diamine derivatives for treatment of cancer” (THOMAS HELLEDAYS STIFTELSE FOR MEDICINSK FORSKNING, priority 2012, dated 2019).
